Results reported in patent publication US7074789B2, “Kinase inhibitors” (Amgen Inc., priority 1999, dated 2006).
Like-named read-outs stand apart in the source and are kept apart here.

Key:
Format in all cases: biochemical
[1] = target: T1, Lck (Homo sapiens, UniProt P06239); experiment: Kinase inhibition assay (33P transfer), Lck; settings: read-out: Lck-1
T1 construct: Kinases are expressed as either kinase domains or full length constructs; made in house
Method in brief: (§1)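 Radiometric readout: 33P incorporated into surface-bound poly(Glu,Tyr) 4:1 or poly(Arg,Ser) 3:1 is counted by liquid scintillation after a 0.5% phosphoric acid wash. Enzymes were GST or polyHis fusions (kinase domain or full length) from E. coli or High Five insect cells.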

[2] = target: T2, Zap-70 (Homo sapiens, UniProt P43403); experiment: Kinase inhibition assay (33P transfer), Zap-70; settings: read-out: Zap-1
T2 construct: Kinases are expressed as either kinase domains or full length constructs; made in house
T2 sequence (P43403 1-619): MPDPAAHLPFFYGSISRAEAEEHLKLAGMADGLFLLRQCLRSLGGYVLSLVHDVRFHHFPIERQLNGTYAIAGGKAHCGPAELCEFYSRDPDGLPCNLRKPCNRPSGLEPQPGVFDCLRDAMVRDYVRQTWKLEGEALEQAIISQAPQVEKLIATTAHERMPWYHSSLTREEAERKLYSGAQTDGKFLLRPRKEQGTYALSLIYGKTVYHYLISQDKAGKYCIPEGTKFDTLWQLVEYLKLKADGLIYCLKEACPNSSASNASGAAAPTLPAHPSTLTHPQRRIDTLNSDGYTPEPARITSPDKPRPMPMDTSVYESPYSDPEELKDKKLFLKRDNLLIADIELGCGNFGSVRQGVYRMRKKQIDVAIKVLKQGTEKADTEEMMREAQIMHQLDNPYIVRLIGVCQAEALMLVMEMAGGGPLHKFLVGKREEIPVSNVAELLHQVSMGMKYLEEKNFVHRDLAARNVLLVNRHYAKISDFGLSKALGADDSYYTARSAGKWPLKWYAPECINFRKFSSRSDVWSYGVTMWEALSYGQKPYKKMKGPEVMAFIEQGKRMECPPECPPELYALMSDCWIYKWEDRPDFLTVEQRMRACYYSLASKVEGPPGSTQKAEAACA
Method in brief: as §1

[3] = target: T3, Itk (Homo sapiens, UniProt Q08881); experiment: Kinase inhibition assay (33P transfer), Itk; settings: read-out: Itk-1
T3 construct: Kinases are expressed as either kinase domains or full length constructs; made in house
T3 sequence (Q08881 1-620): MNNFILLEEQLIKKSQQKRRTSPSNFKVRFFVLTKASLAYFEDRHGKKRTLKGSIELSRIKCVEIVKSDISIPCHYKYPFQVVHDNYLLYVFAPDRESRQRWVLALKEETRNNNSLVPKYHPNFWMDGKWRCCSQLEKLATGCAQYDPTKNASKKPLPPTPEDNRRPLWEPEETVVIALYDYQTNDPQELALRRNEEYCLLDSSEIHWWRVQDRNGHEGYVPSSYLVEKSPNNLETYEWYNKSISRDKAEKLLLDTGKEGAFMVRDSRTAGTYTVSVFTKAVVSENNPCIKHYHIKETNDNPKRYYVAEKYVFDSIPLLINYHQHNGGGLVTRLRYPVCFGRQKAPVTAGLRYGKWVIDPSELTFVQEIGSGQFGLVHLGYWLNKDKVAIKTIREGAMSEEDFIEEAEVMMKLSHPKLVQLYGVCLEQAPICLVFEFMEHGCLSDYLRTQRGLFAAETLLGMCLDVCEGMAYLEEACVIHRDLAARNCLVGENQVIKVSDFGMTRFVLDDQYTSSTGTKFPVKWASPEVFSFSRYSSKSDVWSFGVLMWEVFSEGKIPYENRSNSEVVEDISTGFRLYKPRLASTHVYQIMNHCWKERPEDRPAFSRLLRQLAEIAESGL
Method in brief: (§2)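 Recombinant kinase domains or full-length GST- or His-tagged constructs, from E. coli or baculovirus/High Five cells, sometimes with regulatory polypeptides. Transfer of 33P from ATP to plate-bound poly(Glu,Tyr) 4:1 or poly(Arg,Ser) 3:1 counted by liquid scintillation after phosphoric acid wash; IC50 is the concentration halving incorporation.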

[4] = target: T4, EGFR (Homo sapiens, UniProt P00533); experiment: Kinase inhibition assay (33P transfer), EGFR; settings: Table 2, kinase inhibition class; read-out: EGFR-1
T4 construct: Kinases are expressed as either kinase domains or full length constructs; made in house
Method in brief: as §2

[5] = target: T5, Kdr (Homo sapiens, UniProt P35968); experiment: Kinase inhibition assay (33P transfer), Kdr; settings: read-out: KDR-1
T5 construct: Kinases are expressed as either kinase domains or full length constructs; made in house
Method in brief: as §1

[6] = target: T6, c-Met (Homo sapiens, UniProt P08581); experiment: Kinase inhibition assay (33P transfer), c-Met; settings: Table 2, kinase inhibition class; read-out: Met-1
T6 construct: Kinases are expressed as either kinase domains or full length constructs; made in house
Method in brief: as §2

[7] = target: T7, AKT (Homo sapiens, UniProt Q9Y243); experiment: Kinase inhibition assay (33P transfer), AKT; settings: Table 2, kinase inhibition class; read-out: AKT3-1
T7 construct: Kinases are expressed as either kinase domains or full length constructs; made in house
Method in brief: as §1

[8] = target: T8, IGFR-1 (Homo sapiens, UniProt P08069); experiment: Kinase inhibition assay (33P transfer), IGFR-1; settings: Table 2, kinase inhibition class
T8 construct: Kinases are expressed as either kinase domains or full length constructs; made in house

[9] = target: T9, ErbB2 (Homo sapiens, UniProt P04626); experiment: Kinase inhibition assay (33P transfer), ErbB2; settings: read-out: ErbB2-2
T9 construct: Kinases are expressed as either kinase domains or full length constructs; made in house
Method in brief: as §2

[10] = target: T8, IGFR-1; experiment: Kinase inhibition assay, IGFR-1 (Table 2); settings: Table 2, kinase inhibition class
[11] = target: T10, PDGFRB (Homo sapiens, UniProt P09619); experiment: Kinase inhibition assay (33P transfer), PDGFRB; settings: read-out: PDGFRB-1
T10 construct: Kinases are expressed as either kinase domains or full length constructs; made in house

T4 sequence (P00533 25-1210, species assumed): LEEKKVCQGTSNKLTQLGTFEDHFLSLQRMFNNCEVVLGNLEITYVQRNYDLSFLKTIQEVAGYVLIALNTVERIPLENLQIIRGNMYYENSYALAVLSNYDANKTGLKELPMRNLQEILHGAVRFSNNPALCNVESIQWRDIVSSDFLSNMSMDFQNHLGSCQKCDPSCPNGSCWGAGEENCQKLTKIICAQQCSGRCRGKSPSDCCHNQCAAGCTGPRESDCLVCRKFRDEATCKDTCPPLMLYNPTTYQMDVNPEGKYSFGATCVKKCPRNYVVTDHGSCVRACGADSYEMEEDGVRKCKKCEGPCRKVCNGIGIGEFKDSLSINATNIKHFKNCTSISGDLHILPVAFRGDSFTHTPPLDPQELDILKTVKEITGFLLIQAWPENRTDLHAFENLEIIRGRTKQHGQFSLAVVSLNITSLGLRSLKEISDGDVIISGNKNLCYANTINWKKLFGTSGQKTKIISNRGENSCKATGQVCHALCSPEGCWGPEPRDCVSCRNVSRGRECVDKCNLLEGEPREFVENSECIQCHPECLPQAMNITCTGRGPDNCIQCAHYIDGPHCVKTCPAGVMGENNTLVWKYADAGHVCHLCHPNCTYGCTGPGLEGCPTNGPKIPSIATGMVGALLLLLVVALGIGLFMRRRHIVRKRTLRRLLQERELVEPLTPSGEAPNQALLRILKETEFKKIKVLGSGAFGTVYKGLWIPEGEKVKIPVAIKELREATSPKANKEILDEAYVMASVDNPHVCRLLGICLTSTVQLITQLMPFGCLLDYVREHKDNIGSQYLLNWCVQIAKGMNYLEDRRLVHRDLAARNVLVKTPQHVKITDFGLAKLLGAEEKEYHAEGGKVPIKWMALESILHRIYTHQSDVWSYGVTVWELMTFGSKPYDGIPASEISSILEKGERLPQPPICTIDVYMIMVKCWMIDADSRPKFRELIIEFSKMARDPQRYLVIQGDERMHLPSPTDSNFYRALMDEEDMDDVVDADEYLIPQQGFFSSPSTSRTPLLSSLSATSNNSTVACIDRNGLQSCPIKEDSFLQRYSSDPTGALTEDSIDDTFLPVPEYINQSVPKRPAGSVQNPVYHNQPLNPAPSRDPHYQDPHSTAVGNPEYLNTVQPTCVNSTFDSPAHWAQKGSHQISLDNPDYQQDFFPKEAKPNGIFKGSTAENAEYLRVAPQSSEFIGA
T8 sequence (P08069 31-1367): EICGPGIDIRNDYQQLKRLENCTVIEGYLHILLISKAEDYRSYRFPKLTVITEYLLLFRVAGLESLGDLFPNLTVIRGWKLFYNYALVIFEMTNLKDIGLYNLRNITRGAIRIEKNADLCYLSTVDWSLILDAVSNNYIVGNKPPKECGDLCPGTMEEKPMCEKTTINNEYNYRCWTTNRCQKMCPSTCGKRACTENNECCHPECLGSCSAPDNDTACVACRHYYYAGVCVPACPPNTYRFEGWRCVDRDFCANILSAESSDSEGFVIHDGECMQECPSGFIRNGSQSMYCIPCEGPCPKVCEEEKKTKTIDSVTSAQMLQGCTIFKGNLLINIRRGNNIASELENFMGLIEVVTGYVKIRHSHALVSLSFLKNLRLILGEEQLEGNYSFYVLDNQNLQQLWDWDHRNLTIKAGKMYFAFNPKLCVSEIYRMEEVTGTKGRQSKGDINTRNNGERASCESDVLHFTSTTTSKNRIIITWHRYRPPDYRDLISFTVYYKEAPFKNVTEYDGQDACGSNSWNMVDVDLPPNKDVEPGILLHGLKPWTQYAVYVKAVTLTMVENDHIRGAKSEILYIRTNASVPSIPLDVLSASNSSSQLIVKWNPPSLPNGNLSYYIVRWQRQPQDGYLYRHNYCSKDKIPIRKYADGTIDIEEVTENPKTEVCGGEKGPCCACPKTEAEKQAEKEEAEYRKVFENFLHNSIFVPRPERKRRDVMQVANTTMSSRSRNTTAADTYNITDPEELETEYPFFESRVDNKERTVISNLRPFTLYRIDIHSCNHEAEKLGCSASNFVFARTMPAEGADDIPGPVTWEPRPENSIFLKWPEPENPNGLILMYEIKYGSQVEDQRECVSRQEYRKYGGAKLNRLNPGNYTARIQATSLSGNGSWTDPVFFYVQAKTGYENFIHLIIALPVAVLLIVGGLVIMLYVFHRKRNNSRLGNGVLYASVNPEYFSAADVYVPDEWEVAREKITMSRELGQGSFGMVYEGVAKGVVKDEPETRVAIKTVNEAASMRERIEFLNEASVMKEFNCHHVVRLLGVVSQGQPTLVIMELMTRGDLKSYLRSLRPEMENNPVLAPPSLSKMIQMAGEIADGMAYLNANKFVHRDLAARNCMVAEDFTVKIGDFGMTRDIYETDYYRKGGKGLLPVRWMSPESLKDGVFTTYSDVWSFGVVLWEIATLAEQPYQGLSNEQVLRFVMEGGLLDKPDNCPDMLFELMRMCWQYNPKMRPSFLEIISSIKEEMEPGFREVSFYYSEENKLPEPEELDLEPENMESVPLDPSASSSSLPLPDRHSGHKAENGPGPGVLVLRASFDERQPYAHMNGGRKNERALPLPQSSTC
T1 sequence (P06239 whole entry, species assumed, the tested form may be a part): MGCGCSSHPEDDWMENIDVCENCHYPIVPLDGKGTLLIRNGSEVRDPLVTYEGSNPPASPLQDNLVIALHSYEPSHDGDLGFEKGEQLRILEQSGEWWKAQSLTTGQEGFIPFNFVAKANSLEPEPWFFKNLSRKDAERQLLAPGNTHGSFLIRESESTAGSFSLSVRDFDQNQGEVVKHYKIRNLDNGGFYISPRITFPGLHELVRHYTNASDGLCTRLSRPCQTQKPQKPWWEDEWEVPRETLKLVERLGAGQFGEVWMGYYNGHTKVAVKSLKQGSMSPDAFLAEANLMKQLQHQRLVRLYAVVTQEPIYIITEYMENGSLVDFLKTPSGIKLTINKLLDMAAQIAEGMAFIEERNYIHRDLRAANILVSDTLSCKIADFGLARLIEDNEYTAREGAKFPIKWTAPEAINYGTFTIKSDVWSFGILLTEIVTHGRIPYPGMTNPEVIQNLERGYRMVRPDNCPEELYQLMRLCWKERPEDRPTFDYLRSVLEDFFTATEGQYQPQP
T5 sequence (P35968 20-1356, species assumed): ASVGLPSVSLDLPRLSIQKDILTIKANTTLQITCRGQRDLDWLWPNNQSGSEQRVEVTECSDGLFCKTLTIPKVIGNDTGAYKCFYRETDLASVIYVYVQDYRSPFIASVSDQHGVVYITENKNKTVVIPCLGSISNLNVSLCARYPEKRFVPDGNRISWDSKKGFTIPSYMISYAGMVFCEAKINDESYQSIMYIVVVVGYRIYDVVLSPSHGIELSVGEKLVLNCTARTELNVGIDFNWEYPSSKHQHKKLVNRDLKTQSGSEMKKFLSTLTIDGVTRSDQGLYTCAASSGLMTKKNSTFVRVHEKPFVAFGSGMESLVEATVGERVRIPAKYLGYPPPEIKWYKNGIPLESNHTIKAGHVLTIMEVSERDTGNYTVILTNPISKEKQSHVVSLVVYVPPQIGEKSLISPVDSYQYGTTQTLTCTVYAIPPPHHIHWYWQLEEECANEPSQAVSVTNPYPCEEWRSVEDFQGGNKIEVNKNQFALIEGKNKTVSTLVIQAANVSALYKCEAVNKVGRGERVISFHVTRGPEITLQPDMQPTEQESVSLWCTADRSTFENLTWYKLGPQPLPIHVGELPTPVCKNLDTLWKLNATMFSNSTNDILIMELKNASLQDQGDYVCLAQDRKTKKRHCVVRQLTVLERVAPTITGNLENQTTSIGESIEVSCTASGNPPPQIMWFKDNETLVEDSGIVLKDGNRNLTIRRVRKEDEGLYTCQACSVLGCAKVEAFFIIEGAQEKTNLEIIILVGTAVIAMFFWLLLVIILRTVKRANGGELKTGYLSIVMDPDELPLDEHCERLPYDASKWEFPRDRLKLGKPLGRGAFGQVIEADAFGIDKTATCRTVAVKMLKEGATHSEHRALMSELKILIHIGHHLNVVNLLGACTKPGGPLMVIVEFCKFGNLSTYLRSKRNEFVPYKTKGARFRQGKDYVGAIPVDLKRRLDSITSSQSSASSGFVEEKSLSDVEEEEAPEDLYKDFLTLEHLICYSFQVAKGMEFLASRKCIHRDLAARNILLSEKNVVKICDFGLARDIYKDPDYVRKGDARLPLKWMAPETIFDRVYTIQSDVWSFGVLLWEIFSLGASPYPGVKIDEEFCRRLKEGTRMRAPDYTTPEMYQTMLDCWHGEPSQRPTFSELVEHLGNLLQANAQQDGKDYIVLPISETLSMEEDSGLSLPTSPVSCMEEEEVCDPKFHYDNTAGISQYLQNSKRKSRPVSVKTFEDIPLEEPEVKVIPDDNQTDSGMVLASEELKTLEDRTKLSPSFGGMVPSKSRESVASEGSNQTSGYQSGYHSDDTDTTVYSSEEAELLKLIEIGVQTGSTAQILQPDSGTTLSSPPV
T7 sequence (Q9Y243 whole entry, the tested form may be a part): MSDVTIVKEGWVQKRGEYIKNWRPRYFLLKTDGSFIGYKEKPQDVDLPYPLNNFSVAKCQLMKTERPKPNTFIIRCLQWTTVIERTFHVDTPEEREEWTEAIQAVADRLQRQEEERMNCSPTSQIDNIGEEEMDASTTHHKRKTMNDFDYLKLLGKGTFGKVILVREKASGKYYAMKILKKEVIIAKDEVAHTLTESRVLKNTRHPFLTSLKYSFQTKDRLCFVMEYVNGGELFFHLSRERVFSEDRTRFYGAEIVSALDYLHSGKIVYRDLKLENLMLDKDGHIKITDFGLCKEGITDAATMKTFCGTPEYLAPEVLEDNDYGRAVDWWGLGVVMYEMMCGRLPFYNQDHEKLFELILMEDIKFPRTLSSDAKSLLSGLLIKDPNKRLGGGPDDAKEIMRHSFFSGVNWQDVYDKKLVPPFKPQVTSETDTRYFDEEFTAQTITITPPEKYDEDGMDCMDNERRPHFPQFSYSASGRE

N#Cc1ccc(Nc2ncnc(-c3cccs3)n2)cc1 [Compound 356]
IC50 ([1]; Table 3): > 16.1 µM
IC50 ([2]; Table 3): > 16.1 µM
IC50 ([3]; Table 3): > 16.1 µM
IC50 [4]: > 16.1 µM
IC50 ([5]; Table 3): > 16.1 µM
IC50 [6]: > 16.1 µM
IC50 [7]: > 16.1 µM
IC50 [8]: > 16.1 µM

NC(=O)c1ccc(Nc2ncnc(-c3ccccc3)n2)cc1 [Compound 1028]
IC50 ([1]; Table 3): > 15.4 µM
IC50 ([2]; Table 3): > 15.4 µM
IC50 ([3]; Table 3): > 15.4 µM
IC50 [4]: > 15.4 µM
IC50 ([5]; Table 3): > 15.4 µM
IC50 [6]: > 15.4 µM
IC50 [7]: > 15.4 µM
IC50 [8]: > 15.4 µM

NC(=O)c1cccc(Nc2ncnc(-c3ccccc3)n2)c1 [Compound 151]
IC50 ([1]; Table 3): > 15.4 µM
IC50 ([2]; Table 3): > 15.4 µM
IC50 ([3]; Table 3): > 15.4 µM
IC50 [4]: > 15.4 µM
IC50 ([5]; Table 3): 12 to 15.4 µM
IC50 [6]: > 15.4 µM
IC50 [7]: > 15.4 µM
IC50 [8]: > 15.4 µM

c1csc(-c2ncnc(Nc3ccc(N4CCOCC4)cc3)n2)c1 [Compound 349]
IC50 ([1]; Table 3): 1.18 to 7.07 µM
IC50 ([2]; Table 3): > 13.3 µM
IC50 ([3]; Table 3): > 13.3 µM
IC50 [4]: > 13.3 µM
IC50 ([5]; Table 3): 10.3 to 13.3 µM
IC50 [6]: 10.3 to 13.3 µM
IC50 [7]: 10.3 to 13.3 µM
IC50 [8]: > 13.3 µM

CC(C)(C)OC(=O)NCCCNc1ncnc(-c2ccccc2)n1 [Compound 17]
IC50 ([1]; Table 3): > 13.7 µM
IC50 ([2]; Table 3): > 13.7 µM
IC50 ([3]; Table 3): > 13.7 µM
IC50 [4]: > 13.7 µM
IC50 ([5]; Table 3): > 13.7 µM
IC50 [6]: > 13.7 µM
IC50 [7]: > 13.7 µM
IC50 [8]: > 13.7 µM

CC(=O)Nc1ccc(Nc2ncnc(-c3cccs3)n2)cc1 [Compound 355]
IC50 ([1]; Table 3): > 14.5 µM
IC50 ([2]; Table 3): > 14.5 µM
IC50 ([3]; Table 3): > 14.5 µM
IC50 [4]: > 14.5 µM
IC50 ([5]; Table 3): > 14.5 µM
IC50 [6]: > 14.5 µM
IC50 [7]: > 14.5 µM
IC50 [8]: > 14.5 µM

COc1cc(Nc2ncnc(N3CCCC3)n2)cc(OC)c1OC [Compound 181]
IC50 ([1]; Table 3): > 13.6 µM
IC50 ([2]; Table 3): > 13.6 µM
IC50 ([3]; Table 3): > 13.6 µM
IC50 [4]: > 13.6 µM
IC50 ([5]; Table 3): > 13.6 µM
IC50 [6]: > 13.6 µM
IC50 [7]: > 13.6 µM
IC50 [8]: > 13.6 µM

COc1cc(Nc2ncnc(-n3c(NCCCCO)nc4ccccc43)n2)cc(OC)c1OC [Compound 392]
IC50 ([1]; Table 3): 5.16 to 7.52 µM
IC50 ([2]; Table 3): > 9.67 µM
IC50 ([3]; Table 3): > 9.67 µM
IC50 [4]: > 9.67 µM
IC50 ([5]; Table 3): 0.859 to 5.16 µM
IC50 [6]: > 9.67 µM
IC50 [7]: > 9.67 µM
IC50 [8]: > 9.67 µM

COc1cc(Nc2ncnc(N)n2)cc(OC)c1OC [Compound 925]
IC50 ([1]; Table 3): 1.44 to 8.66 µM
IC50 ([2]; Table 3): > 16.2 µM
IC50 ([3]; Table 3): > 16.2 µM
IC50 [4]: > 16.2 µM
IC50 ([5]; Table 3): > 16.2 µM
IC50 [6]: > 16.2 µM
IC50 [7]: > 16.2 µM
IC50 [8]: > 16.2 µM

C=CCNC(=O)c1ccc(-c2cc(Nc3ncnc(Nc4cc(OC)c(OC)c(OC)c4)n3)[nH]n2)cc1 [Compound 1005]
IC50 [1]: 6.96 to 8.95 µM
IC50 [2]: > 8.95 µM
IC50 [3]: > 8.95 µM
IC50 [4]: > 8.95 µM
IC50 [9]: > 8.95 µM
IC50 [5]: > 8.95 µM
IC50 [6]: 4.78 to 6.96 µM
IC50 [7]: > 8.95 µM
IC50 [10]: 0.796 to 4.78 µM
IC50 [11]: > 8.95 µM
